Measurements taken from patent US20240182445A1 (ONO PHARMACEUTICAL CO., LTD., priority 2019, published 2024).

Molecular target: T1, human TREK-1 (Homo sapiens, UniProt O95069)
T1 construct: expressed in transfected cells
T1 sequence (O95069 1-426): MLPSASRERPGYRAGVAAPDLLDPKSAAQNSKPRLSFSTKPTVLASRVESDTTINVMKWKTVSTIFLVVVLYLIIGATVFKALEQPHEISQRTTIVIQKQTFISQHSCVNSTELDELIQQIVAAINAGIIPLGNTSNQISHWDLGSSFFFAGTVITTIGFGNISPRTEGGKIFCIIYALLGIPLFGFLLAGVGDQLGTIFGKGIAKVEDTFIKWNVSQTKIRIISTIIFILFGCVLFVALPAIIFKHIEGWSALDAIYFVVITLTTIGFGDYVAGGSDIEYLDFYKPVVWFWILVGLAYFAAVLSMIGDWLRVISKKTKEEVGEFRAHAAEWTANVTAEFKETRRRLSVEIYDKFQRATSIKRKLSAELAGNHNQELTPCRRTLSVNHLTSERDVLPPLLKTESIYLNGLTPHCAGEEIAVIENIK
Assay: TREK-1 Thallium (Tl+) flux assay, Method 1
Assay type: cell-based
Conditions: TREK-1 Thallium (Tl+) flux assay; no *^12 (Method 2) mark on these rows
Outline: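 CHO-K1 cells stably expressing human TREK-1, loaded with Thallos dye, received compound or 0.3% DMSO vehicle for 10 min before thallium stimulus buffer. ΔRatio is fluorescence at 25 s after thallium addition over mean pre-addition fluorescence; % inhibition calculated from it.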

CC(=O)N1C[C@H]2C[C@H](n3ncc(Cl)c3C(=O)Nc3ncc(C#Cc4ccccc4F)cc3C)C[C@H]2C1 [Compound 359, 1-[(3aR,5s,6aS)-2-acetyloctahydrocyclopenta[c]pyrrol-5-yl]-4-chloro-N-{5-[(2-fluorophenyl)ethynyl]-3-methylpyridin-2-yl}-1H-pyrazole-5-carboxamide]
IC50: 900 nM

CC(C)(C)OC(=O)N[C@H]1CC[C@H](n2ncc(Cl)c2C(=O)Nc2ncc(C#Cc3ccccc3)cc2F)CC1 [Compound 360, tert-butyl (trans-4-(4-chloro-5-((3-fluoro-5-(phenylethynyl)pyridin-2-yl)carbamoyl)-1H-pyrazol-1-yl)cyclohexyl)carbamate]
IC50: 900 nM

O=C(Nc1ncc(C#Cc2ccccc2)cc1Cl)c1c(Cl)cnn1C[C@H]1COCCO1 [Compound 361, (S)-1-((1,4-dioxan-2-yl)methyl)-4-chloro-N-(3-chloro-5-(phenylethynyl)pyridin-2-yl)-1H-pyrazole-5-carboxamide]
IC50: 910 nM

Cc1cc(C#Cc2ccccc2)cnc1NC(=O)c1c(Cl)nn(C)c1-c1ccc2c(cnn2C)c1 [Compound 364, 3-chloro-1-methyl-5-(1-methyl-1H-indazol-5-yl)-N-(3-methyl-5-(phenylethynyl)pyridin-2-yl)-1H-pyrazole-4-carboxamide]
IC50: 910 nM

CC(C)(C)OC(=O)N1CCCC(Cn2ncc(Cl)c2C(=O)Nc2ncc(C#Cc3ccccc3)cc2F)C1 (stereo not drawn) [Compound 365, tert-butyl 3-((4-chloro-5-((3-fluoro-5-(phenylethynyl)pyridin-2-yl)carbamoyl)-1H-pyrazol-1-yl)methyl)piperidine-1-carboxylate]
IC50: 920 nM

O=C(Nc1ncc(C#Cc2ccccc2)cc1F)c1c(Cl)cnn1CC1CCCO1 (stereo not drawn) [Compound 366, 4-chloro-N-(3-fluoro-5-(phenylethynyl)pyridin-2-yl)-1-((tetrahydrofuran-2-yl)methyl)-1H-pyrazole-5-carboxamide]
IC50: 930 nM

Cc1cc(C#Cc2ccc(F)cc2)cnc1NC(=O)c1c(Cl)cnn1CC1CN(C(=O)C2CCC2)CCO1 (stereo not drawn) [Compound 367, 4-chloro-1-((4-(cyclobutanecarbonyl)morpholin-2-yl)methyl)-N-(5-((4-fluorophenyl)ethynyl)-3-methylpyridin-2-yl)-1H-pyrazole-5-carboxamide]
IC50: 940 nM

Cc1cc(C#Cc2ccc(F)cc2)cnc1NC(=O)c1c(Cl)cnn1C[C@H]1CCCN(C(=O)OC(C)(C)C)C1 [Compound 368, tert-butyl (S)-3-((4-chloro-5-((5-((4-fluorophenyl)ethynyl)-3-methylpyridin-2-yl)carbamoyl)-1H-pyrazol-1-yl)methyl)piperidine-1-carboxylate]
IC50: 940 nM

COCCn1ncc(Cl)c1C(=O)Nc1ncc(C#Cc2ccccc2)cc1C [Compound 369, 4-chloro-1-(2-methoxyethyl)-N-(3-methyl-5-(phenylethynyl)pyridin-2-yl)-1H-pyrazole-5-carboxamide]
IC50: 950 nM

CC(=O)N1CC2CC(C1)C2Cn1ncc(Cl)c1C(=O)Nc1ncc(C#Cc2ccccc2)cc1C (stereo not drawn) [Compound 370, 1-((3-acetyl-3-azabicyclo[3.1.1]heptan-6-yl)methyl)-4-chloro-N-(3-methyl-5-(phenylethynyl)pyridin-2-yl)-1H-pyrazole-5-carboxamide]
IC50: 980 nM

Cc1cc(C#Cc2ccccc2)cnc1NC(=O)c1c(Cl)cnn1CC1CCC(C)(C)O1 (stereo not drawn) [Compound 371, 4-chloro-1-((5,5-dimethyltetrahydrofuran-2-yl)methyl)-N-(3-methyl-5-(phenylethynyl)pyridin-2-yl)-1H-pyrazole-5-carboxamide]
IC50: 1000 nM

Cn1nc(Cl)c(C(=O)Nc2ncc(C#Cc3ccccc3)cc2F)c1-c1ccc2c(cnn2C)c1 [Compound 372, 3-chloro-N-(3-fluoro-5-(phenylethynyl)pyridin-2-yl)-1-methyl-5-(1-methyl-1H-indazol-5-yl)-1H-pyrazole-4-carboxamide]
IC50: 1080 nM
